# Test results published in article PMC11858715 (Molecules, 2025).
# No end group written: not given here.
# Columns and labels:
# [1] = target: S2 (YIYRNYPDF), sense peptide surrogate of AtxA neurotoxic site (Vipera ammodytes ammodytes, UniProt P00626); assay: biochemical; format: binding; details: 100% DMSO; 25 °C; read-out: KD (σ)
# [2] = target: S1 (GMMILG), sense peptide surrogate of AtxA neurotoxic site (Vipera ammodytes ammodytes, UniProt P00626); assay: biochemical; format: binding; details: 100% DMSO; 25 °C; read-out: KD (σ)
Substance,Kd [1] [µM],Kd [2] [µM]
"INISIVGVK [S2A1, Ile-Asn-Ile-Ser-Ile-Val-Gly-Val-Lys]",1.1,–
"SHHYEP [S1A1, Ser-His-His-Tyr-Glu-Pro]",–,4.9
"SHHYSP [S1A2, Ser-His-His-Tyr-Ser-Pro]",–,1.4
"VNISVIGIK [S2A2, Val-Asn-Ile-Ser-Val-Ile-Gly-Ile-Lys]",8.9,–
